Results: the kinase profiling compilation of Christmann-Franck et al. (2016)

Legend:
Assay in all cases: radiometric filter-binding kinase assay
[1] = biological target: MAP3K1 (human) (UniProt Q13233)
[2] = biological target: MST4 (human) (UniProt Q9P289)
[3] = biological target: HIPK3 (human) (UniProt Q9H422)
[4] = biological target: TAOK1 (human) (UniProt Q7L7X3)
[5] = biological target: JAK2 JH1 JH2 (human) (UniProt O60674)
[6] = biological target: ERBB4 (human) (UniProt Q15303)
[7] = biological target: NUAK1 (human) (UniProt O60285)
[8] = biological target: MARK4 (human) (UniProt Q96L34)
[9] = biological target: HIPK1 (human) (UniProt Q86Z02)
[10] = biological target: AURKA (human) (UniProt O14965)
[11] = system: SGK1 (human), O00141 [S422D]
[12] = biological target: EEF2K (human) (UniProt O00418)
[13] = biological target: CHEK2 (human) (UniProt O96017)
[14] = biological target: PAK6 (human) (UniProt Q9NQU5)
[15] = biological target: NTRK1 (human) (UniProt P04629)
[16] = biological target: RPS6KA5 KD1 KD2 (human) (UniProt O75582)
[17] = biological target: MAPK3 (human) (UniProt P27361)
[18] = biological target: MAPK1 (human) (UniProt P28482)
[19] = biological target: CLK2 (human) (UniProt P49760)
[20] = biological target: PLK1 (human) (UniProt P53350)
[21] = biological target: EPHB4 (human) (UniProt P54760)
[22] = biological target: MARK3 (human) (UniProt P27448)
[23] = biological target: MAP3K5 (human) (UniProt Q99683)
[24] = biological target: STK3 (human) (UniProt Q13188)
[25] = biological target: DAPK1 (human) (UniProt P53355)
[26] = biological target: BRSK2 (human) (UniProt Q8IWQ3)
[27] = biological target: RPS6KA1 KD1 KD2 (human) (UniProt Q15418)
[28] = biological target: SRC (human) (UniProt P12931)
[29] = biological target: RPS6KA3 KD1 KD2 (human) (UniProt P51812)
[30] = biological target: PRKCZ (human) (UniProt Q05513)
[31] = biological target: GCK (human) (UniProt Q12851)
[32] = biological target: CDK2 CCNA2 (human) (UniProt P20248+P24941)
[33] = biological target: FLT1 (human) (UniProt P17948)
[34] = biological target: CHEK1 (human) (UniProt O14757)
[35] = biological target: PRKCA (human) (UniProt P17252)

Chain of MST4 (human) (Q9P289 whole entry, looked up): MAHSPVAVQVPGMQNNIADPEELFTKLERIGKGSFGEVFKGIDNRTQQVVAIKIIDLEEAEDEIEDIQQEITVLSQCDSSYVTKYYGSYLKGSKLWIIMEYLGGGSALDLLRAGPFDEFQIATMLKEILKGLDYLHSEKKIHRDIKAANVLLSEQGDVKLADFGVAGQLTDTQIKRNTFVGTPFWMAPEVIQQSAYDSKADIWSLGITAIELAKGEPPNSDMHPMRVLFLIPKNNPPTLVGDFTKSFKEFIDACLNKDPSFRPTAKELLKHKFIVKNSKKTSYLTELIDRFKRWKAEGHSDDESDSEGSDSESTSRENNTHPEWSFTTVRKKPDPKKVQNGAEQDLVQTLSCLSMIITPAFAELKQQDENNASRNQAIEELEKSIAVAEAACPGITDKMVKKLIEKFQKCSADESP
Chain of RPS6KA5 KD1 KD2 (human) (O75582 whole entry, looked up): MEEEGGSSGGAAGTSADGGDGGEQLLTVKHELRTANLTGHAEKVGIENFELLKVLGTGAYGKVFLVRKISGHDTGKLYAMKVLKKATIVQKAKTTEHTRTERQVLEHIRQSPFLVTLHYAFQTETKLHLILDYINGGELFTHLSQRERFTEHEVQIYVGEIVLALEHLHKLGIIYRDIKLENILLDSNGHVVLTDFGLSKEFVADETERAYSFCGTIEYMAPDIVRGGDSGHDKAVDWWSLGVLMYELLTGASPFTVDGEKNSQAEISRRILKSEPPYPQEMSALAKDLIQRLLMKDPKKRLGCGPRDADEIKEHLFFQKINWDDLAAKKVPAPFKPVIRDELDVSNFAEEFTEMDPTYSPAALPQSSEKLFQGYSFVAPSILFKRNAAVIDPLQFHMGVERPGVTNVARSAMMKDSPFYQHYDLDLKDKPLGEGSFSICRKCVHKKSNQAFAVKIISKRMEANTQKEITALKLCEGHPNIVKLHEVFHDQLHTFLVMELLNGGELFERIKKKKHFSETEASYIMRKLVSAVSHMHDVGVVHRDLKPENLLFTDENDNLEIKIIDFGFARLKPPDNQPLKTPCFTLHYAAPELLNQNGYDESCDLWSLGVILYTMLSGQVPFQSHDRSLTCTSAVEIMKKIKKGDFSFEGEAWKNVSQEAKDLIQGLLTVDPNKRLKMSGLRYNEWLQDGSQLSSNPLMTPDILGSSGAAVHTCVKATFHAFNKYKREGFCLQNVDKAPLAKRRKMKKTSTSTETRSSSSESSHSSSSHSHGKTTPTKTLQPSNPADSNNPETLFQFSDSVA
Chain of PRKCZ (human) (Q05513 whole entry, looked up): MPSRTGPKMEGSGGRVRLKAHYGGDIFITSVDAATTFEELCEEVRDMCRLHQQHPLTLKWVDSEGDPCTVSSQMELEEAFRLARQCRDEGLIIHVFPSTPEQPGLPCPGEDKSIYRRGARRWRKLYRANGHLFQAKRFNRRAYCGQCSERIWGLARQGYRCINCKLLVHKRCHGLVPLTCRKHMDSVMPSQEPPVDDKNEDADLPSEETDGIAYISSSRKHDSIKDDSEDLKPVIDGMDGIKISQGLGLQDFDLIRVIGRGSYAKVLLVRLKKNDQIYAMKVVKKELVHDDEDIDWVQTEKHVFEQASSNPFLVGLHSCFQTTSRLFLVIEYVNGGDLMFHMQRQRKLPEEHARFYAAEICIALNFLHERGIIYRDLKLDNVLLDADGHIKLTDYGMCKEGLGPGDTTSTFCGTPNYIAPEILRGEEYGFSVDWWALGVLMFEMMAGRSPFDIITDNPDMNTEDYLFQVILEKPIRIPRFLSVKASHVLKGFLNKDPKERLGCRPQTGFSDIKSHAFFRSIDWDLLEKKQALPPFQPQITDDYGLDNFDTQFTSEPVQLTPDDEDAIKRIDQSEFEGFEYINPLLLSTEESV
Chain of FLT1 (human) (P17948 whole entry, looked up): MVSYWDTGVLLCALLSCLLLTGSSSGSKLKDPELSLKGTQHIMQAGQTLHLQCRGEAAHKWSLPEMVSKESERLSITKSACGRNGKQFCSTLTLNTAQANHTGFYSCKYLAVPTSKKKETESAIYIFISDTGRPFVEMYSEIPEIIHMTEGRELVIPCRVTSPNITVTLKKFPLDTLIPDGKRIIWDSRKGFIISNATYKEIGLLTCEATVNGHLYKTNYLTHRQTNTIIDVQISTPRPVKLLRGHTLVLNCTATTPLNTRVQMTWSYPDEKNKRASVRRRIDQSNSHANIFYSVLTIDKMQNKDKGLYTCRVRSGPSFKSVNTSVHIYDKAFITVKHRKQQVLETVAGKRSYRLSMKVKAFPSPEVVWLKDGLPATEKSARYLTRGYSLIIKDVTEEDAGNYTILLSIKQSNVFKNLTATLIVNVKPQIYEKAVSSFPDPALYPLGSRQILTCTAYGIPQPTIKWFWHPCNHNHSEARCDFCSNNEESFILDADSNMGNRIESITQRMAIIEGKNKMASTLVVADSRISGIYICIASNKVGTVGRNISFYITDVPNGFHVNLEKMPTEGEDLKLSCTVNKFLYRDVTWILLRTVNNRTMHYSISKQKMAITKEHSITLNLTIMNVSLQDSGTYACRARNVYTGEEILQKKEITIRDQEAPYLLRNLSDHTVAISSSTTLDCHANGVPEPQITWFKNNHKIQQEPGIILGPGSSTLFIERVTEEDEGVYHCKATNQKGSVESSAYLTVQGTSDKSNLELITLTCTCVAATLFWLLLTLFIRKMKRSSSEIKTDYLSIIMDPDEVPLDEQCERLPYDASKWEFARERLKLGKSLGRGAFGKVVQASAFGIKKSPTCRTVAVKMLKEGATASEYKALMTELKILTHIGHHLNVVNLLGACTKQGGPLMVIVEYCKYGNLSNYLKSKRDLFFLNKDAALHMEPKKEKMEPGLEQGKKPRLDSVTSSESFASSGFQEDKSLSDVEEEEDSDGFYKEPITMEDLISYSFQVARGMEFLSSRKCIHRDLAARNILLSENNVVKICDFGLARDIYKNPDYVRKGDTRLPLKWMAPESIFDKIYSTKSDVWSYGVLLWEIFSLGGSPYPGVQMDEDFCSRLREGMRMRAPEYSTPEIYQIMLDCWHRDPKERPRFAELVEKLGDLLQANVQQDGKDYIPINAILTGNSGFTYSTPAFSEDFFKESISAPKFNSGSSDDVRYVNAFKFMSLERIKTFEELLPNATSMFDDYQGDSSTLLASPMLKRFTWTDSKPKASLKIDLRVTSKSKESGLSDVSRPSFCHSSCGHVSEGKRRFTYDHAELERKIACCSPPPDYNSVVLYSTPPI
Chain of STK3 (human) (Q13188 whole entry, looked up): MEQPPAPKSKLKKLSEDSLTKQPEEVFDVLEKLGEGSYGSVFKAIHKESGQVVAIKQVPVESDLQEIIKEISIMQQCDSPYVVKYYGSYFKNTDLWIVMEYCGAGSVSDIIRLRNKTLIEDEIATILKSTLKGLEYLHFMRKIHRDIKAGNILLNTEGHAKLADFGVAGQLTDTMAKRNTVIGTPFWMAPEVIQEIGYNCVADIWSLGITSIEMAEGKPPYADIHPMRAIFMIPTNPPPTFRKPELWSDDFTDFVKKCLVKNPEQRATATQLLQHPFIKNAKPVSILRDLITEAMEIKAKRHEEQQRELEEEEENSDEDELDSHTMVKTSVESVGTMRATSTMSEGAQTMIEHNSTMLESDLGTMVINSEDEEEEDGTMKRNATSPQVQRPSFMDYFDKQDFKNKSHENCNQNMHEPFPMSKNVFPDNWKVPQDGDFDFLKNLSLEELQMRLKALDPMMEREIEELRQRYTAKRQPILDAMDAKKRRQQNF
Chain of MAPK1 (human) (P28482 whole entry, looked up): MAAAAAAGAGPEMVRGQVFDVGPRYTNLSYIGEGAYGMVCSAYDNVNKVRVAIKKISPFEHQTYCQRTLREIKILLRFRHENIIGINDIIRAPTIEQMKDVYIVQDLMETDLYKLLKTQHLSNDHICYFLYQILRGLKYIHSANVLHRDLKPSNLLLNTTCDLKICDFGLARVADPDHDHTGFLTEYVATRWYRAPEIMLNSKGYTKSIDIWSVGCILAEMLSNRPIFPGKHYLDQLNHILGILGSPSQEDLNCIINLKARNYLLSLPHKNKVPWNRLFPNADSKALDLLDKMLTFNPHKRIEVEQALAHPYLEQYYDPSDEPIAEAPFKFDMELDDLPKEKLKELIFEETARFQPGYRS
Chain of MAPK3 (human) (P27361 whole entry, looked up): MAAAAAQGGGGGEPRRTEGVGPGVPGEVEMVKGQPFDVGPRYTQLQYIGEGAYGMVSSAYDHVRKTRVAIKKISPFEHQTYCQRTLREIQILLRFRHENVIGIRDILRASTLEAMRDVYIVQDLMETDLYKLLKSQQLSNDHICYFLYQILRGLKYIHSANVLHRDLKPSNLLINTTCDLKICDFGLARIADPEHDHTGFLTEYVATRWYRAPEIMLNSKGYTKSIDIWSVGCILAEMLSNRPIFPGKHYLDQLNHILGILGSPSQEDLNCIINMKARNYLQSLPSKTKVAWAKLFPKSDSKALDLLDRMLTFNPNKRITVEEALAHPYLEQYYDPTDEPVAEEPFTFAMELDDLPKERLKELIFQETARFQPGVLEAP

## O=C(Nc1ccccc1-c1cn2c(CN3CCNCC3)csc2n1)c1cnc2ccccc2n1
[1]; compound 1.0 µM
  residual activity: 92%
[1]; compound 10.0 µM
  residual activity: 45%
[2]; compound 0.1 µM
  residual activity: 73%
[2]; compound 1.0 µM
  residual activity: 100%
[2]; compound 10.0 µM
  residual activity: 77%
[3]; compound 0.1 µM
  residual activity: 88%
[3]; compound 1.0 µM
  residual activity: 92%
[3]; compound 10.0 µM
  residual activity: 73%
[4]; compound 1.0 µM
  residual activity: 86%
[4]; compound 10.0 µM
  residual activity: 97%
[5]; compound 1.0 µM
  residual activity: 90%
[5]; compound 10.0 µM
  residual activity: 86%
[6]; compound 1.0 µM
  residual activity: 80%
[6]; compound 10.0 µM
  residual activity: 86%
[7]; compound 1.0 µM
  residual activity: 106%
[7]; compound 10.0 µM
  residual activity: 78%
[8]; compound 1.0 µM
  residual activity: 110%
[8]; compound 10.0 µM
  residual activity: 85%
[9]; compound 1.0 µM
  residual activity: 104%
[9]; compound 10.0 µM
  residual activity: 91%
[10]; compound 1.0 µM
  residual activity: 102%
[10]; compound 10.0 µM
  residual activity: 94%
[11]; compound 0.1 µM
  residual activity: 89%
[11]; compound 1.0 µM
  residual activity: 94%
[11]; compound 10.0 µM
  residual activity: 84%
[12]; compound 0.1 µM
  residual activity: 102%
[12]; compound 1.0 µM
  residual activity: 106%
[12]; compound 10.0 µM
  residual activity: 117%
[13]; compound 0.1 µM
  residual activity: 85%
[13]; compound 1.0 µM
  residual activity: 93%
[13]; compound 10.0 µM
  residual activity: 54%
[14]; compound 0.1 µM
  residual activity: 101%
[14]; compound 1.0 µM
  residual activity: 92%
[14]; compound 10.0 µM
  residual activity: 87%
[15]; compound 1.0 µM
  residual activity: 47%
[15]; compound 10.0 µM
  residual activity: 30%
[16]; compound 0.1 µM
  residual activity: 94%
[16]; compound 1.0 µM
  residual activity: 90%
[16]; compound 10.0 µM
  residual activity: 68%
[17]; compound 0.1 µM
  residual activity: 88%
[17]; compound 1.0 µM
  residual activity: 105%
[17]; compound 10.0 µM
  residual activity: 117%
[18]; compound 0.1 µM
  residual activity: 93%
[18]; compound 1.0 µM
  residual activity: 103%
[18]; compound 10.0 µM
  residual activity: 97%
[19]; compound 1.0 µM
  residual activity: 60%
[19]; compound 10.0 µM
  residual activity: 18%
[20]; compound 0.1 µM
  residual activity: 84%
[20]; compound 1.0 µM
  residual activity: 94%
[20]; compound 10.0 µM
  residual activity: 104%
[21]; compound 1.0 µM
  residual activity: 96%
[21]; compound 10.0 µM
  residual activity: 103%
[22]; compound 0.1 µM
  residual activity: 100%
[22]; compound 1.0 µM
  residual activity: 108%
[22]; compound 10.0 µM
  residual activity: 99%
[23]; compound 1.0 µM
  residual activity: 98%
[23]; compound 10.0 µM
  residual activity: 100%
[24]; compound 0.1 µM
  residual activity: 85%
[24]; compound 1.0 µM
  residual activity: 96%
[24]; compound 10.0 µM
  residual activity: 92%
[25]; compound 1.0 µM
  residual activity: 68%
[25]; compound 10.0 µM
  residual activity: 25%
[26]; compound 0.1 µM
  residual activity: 86%
[26]; compound 1.0 µM
  residual activity: 97%
[26]; compound 10.0 µM
  residual activity: 90%
[27]; compound 0.1 µM
  residual activity: 88%
[27]; compound 1.0 µM
  residual activity: 66%
[27]; compound 10.0 µM
  residual activity: 34%
[28]; compound 0.1 µM
  residual activity: 85%
[28]; compound 1.0 µM
  residual activity: 93%
[28]; compound 10.0 µM
  residual activity: 121%
[29]; compound 1.0 µM
  residual activity: 84%
[29]; compound 10.0 µM
  residual activity: 46%
[30]; compound 0.1 µM
  residual activity: 78%
[30]; compound 1.0 µM
  residual activity: 105%
[30]; compound 10.0 µM
  residual activity: 103%
[31]; compound 1.0 µM
  residual activity: 102%
[31]; compound 10.0 µM
  residual activity: 99%
[32]; compound 0.1 µM
  residual activity: 88%
[32]; compound 1.0 µM
  residual activity: 100%
[32]; compound 10.0 µM
  residual activity: 115%
[33]; compound 0.1 µM
  residual activity: 90%
[33]; compound 1.0 µM
  residual activity: 89%
[33]; compound 10.0 µM
  residual activity: 53%
[34]; compound 0.1 µM
  residual activity: 86%
[34]; compound 1.0 µM
  residual activity: 98%
[34]; compound 10.0 µM
  residual activity: 96%
[35]; compound 0.1 µM
  residual activity: 114%
[35]; compound 1.0 µM
  residual activity: 106%
[35]; compound 10.0 µM
  residual activity: 80%
